Results reported in patent US9315545B2, “Hepcidin mimetic peptides and uses thereof” (MERGANSER BIOTECH, INC., priority 2014, dated 2016).
≈ marks a conversion by molar mass, not a printed value. Entries after “also recorded” stand apart in the source; their conditions may differ. Blank lines part the entries; values can stand above or below the compound they belong to.

How the values were obtained:
[1] = type: physicochemical
Protocol: Compound 5, which has the same disulphide block of the reactive cysteine as Compound 2 was also evaluated in stability studies over a 4 week period in 50 mM Na Acetate pH 5 at different temperatures.

[2] = type: physicochemical; details: HCl (0.01%), 40° C.
[3] = In vitro stability of compounds in rat plasma (37° C.); type: in vitro ADME
Protocol: The in vitro stability of Compounds 1-4 in rat plasma at 37° C. was examined to give an indication of stability in a whole animal model (Table 6).

[4] = Compound blood levels after subcutaneous administration in the rat (LC/MS); type: in vivo; details: 7.5 mg/kg
Protocol: (§1) Compounds 1-4 were tested in rats to determine compound pharmacokinetics and hepcidin mimetic activity in vivo as measured by serum iron reduction. The effectiveness of the compounds for serum iron reduction should correlate with the treatment of iron metabolism disorders. Individual compounds, in this example and the following examples were generally formulated in DSPE-PEG(2000) (SUNBRIGHT® DSPE-020CN, NOF America Corporation) (30 mg/mL) and dosed subcutaneously at a compound dose of 7.5 mg/kg.
(§2) The compound was prepared according to the following typical preparation. The dosing solution was prepared (7.5 mg compound/mL in clear solution) by weighing the compound into vial and an aliquot of ethanol is added into the vial and mixture vortexed. DSPE-020CN was added and the solution was vortexed, and, if necessary, the mixture was heated at 37° C. for 10-15 minutes to fully dissolve the DSPE-020CN. The ethanol was evaporated with nitrogen gas stream for 1-3 hours. Sterile water was then added and the mixture was vortexed or, if necessary, sonicated to give a clear solution.
After subcutaneous injection compound quantities in blood were measured over the subsequent 24 hours via LC/MS.

serum iron = assay: Serum iron reduction after subcutaneous administration in the rat (hepcidin mimetic activity); type: in vivo; details: 7.5 mg/kg
Protocol: as §1, §2
Serum iron was measured during the 24 h following subcutaneous administration in a rat of Compounds 1-4 and is summarized in FIG. 1. […] The observed effects on serum iron were unexpectedly similar in Compounds 1-3 despite the differences at Cysteine 7 and the differences in blood levels of the compounds (Table 7).

physchem = type: physicochemical
Protocol: Different solvent compositions with different properties that are commonly used as a basis for pharmaceutical compositions were added to known quantities of the indicated compound and mixed. If a clear solution was not obtained, additional solvent was added and the solution mixed. […] For example “50-100” would indicate that the compound was not soluble at 100 mg/mL but upon additional solvent to have a final concentration of 50 mg/mL, the compound was soluble.

[5] = type: physicochemical; remark: listed apart in the source
Protocol: An additional critical aspect in drug delivery is retention of solubility with time (physical stability), especially under refrigerated conditions. […] Unexpectedly, clear differences in physical stability were observed between Compound 5 and other compounds with only minor changes in sequence (e.g. Compounds 7 and 8). The combination of unexpected solubility of greater than 100 mg/mL in mildly acidic conditions and lack of significant changes in solution character after refrigeration, are unexpected and advantageous for a pharmaceutical product.

[6] = Stability of Compound 1 pH 6 formulations at 40° C. with antioxidants (HPLC % AUC); type: physicochemical
Protocol: Initially the stability of Compound 1 was previously characterized and there was significant degradation observed by HPLC after about 24 hours at 40° C. […] The effect of various antioxidants and thiol scavengers that might be used in a medicament were studied.

[7] = Stability in sodium acetate buffer pH 6 at two temperatures, reversed-phase HPLC; type: physicochemical
Protocol: Three other compounds were also tested, Compound 2, Compound 3, and Compound 4. Compounds 2, 3, and 4 are modifications of Compound 1 at the sidechain of Cysteine 7. Compound 2 has a disulfide bond attached to Cysteine 7, Compound 3 has thioester bond attached to Cysteine 7, and Compound 4 has an ethyl group attached to the sidechain sulfur of Cysteine 7. The peptides were incubated in sodium acetate buffer pH 6 at two temperature conditions and then analyzed via reversed-phase HPLC. The chromatography performed was with an Ascentis Phenyl 2.7 micron column (4.6×150 mm). The binary gradient (1 ml/min) was 36% to 56% B in 40 minutes followed by an increase to 65% B in 5 minutes where A=0.1% trifluoroacetic acid in water and B=0.1% trifluoroacetic acid in acetonitrile.

% Purity, Week 0, 2-8° C. ([1]; 50 mM NaAcetate pH 5, week 0, 2-8° C.): 96.9%
% Purity, Week 0, 25° C. ([1]; 50 mM NaAcetate pH 5, week 0, 25° C.): 96.9%
% Purity, Week 1, 2-8° C. ([1]; 50 mM NaAcetate pH 5, week 1, 2-8° C.): 96.8%
% Purity, Week 1, 25° C. ([1]; 50 mM NaAcetate pH 5, week 1, 25° C.): 96.8%
% Purity, Week 2, 2-8° C. ([1]; 50 mM NaAcetate pH 5, week 2, 2-8° C.): 96.8%
% Purity, Week 2, 25° C. ([1]; 50 mM NaAcetate pH 5, week 2, 25° C.): 96.3%
% Purity, Week 4, 2-8° C. ([1]; 50 mM NaAcetate pH 5, week 4, 2-8° C.): 96.7%
% Purity, Week 4, 25° C. ([1]; 50 mM NaAcetate pH 5, week 4, 25° C.): 96.1%
% Purity, Day 0 ([2]; day 0): 97.1%
% Purity, Day 7 ([2]; day 7): 96.8%
in vitro plasma stability, comparison in words [3]: even greater than that for Compound 2
solubility (physchem; Solubility (mg/mL) at Ambient Temperature, 30% PEG 400): 50 to 100 mg/mL (≈ 27.7 to 55.4 mM)
solubility (physchem; Solubility (mg/mL) at Ambient Temperature, 50% EtOH/water): > 100 mg/mL
solubility (physchem; Solubility (mg/mL) at Ambient Temperature, Water): > 100 mg/mL
solubility (physchem; pH 2.3, Solubility (mg/mL) at Ambient Temperature, 10% Tween 80 pH 2.3-2.8): > 200 mg/mL
solubility (physchem; pH 2.7, Solubility (mg/mL) at Ambient Temperature, 50% propylene glycol, pH 2.7): 50 to 100 mg/mL (≈ 27.7 to 55.4 mM)
solubility (physchem; pH 4.5, Solubility (mg/mL) at Ambient Temperature, 10% Tween 80 pH 4.5-5.0): > 100 mg/mL
solubility (physchem; pH 5, Solubility (mg/mL) at Ambient Temperature, 2% Tween 80 pH 5): > 100 mg/mL
solubility (physchem; pH 5.5, Solubility (mg/mL) at Ambient Temperature, 10% Tween 80 pH 5.5-6.0): > 100 mg/mL
solubility (physchem; pH 6.4, Solubility (mg/mL) at Ambient Temperature, 2% Tween pH 6.4): > 44 mg/mL
solubility (physchem; solubility in mildly acidic conditions): > 100 mg/mL
Compound: CCCCCCCCCCCCCCCCNC(=O)CN(CC(N)=O)C(=O)CCCCCNC(=O)C(Cc1c[nH]c2ccccc12)NC(=O)C(CCCNC(=N)N)NC(=O)C(CSSC)NC(=O)C(CCCNC(=N)N)NC(=O)C1CCCN(C(=O)C(NC(=O)C(Cc2c[nH]cn2)NC(=O)C(NC(=O)CNCC(=O)O)C(C)O)C(c2ccccc2)c2ccccc2)C1 (stereo not shown) [Compound 5]
blood levels of the dosed compound (in words) ([4]; in vivo, sc): surprisingly higher blood levels relative to the other compounds
duration of serum iron reduction compared with Compound 2 (serum iron): longer effect
reduction in serum iron (in words) (serum iron): retained significant hepcidin activity; also recorded: comparable activity
solubility characteristics compared to the other compounds (in words) (physchem): unexpectedly superior solubility characteristics
change of solubility with pH (in words) (physchem; pH 4): no such significant change in solubility with pH
physical stability under refrigerated conditions (in words) [5]: no changes in solution solubility or solution characteristics

main peak (% AUC) lost ([6]; after about 24 hours at 40° C., no antioxidant): 90%
Difference (%) (T24 − T0) ([6]; pH 6 formulation, antioxidant 10 mM or none, 40° C.): −90%
Main peak % AUC, T0 ([6]; pH 6 formulation, antioxidant 10 mM or none, 40° C., T0): 94.4 % AUC
Main peak % AUC, T ~24 hours ([6]; pH 6 formulation, antioxidant 10 mM or none, 40° C., ~24 hours): ~4.0 (estimated) % AUC
significant degradation peaks observed by HPLC [7]: a single major peak
degradation after 18 hours at 40° C. (in words) ([7]; 18 hours, 40° C.): almost completely degraded
% Purity of the Compound, 6 Hours 25° C. ([7]; sodium acetate buffer pH 6, 6 hours, 25° C.): 58.9%
% Purity of the Compound, 6 Hours 40° C. ([7]; sodium acetate buffer pH 6, 6 hours, 40° C.): 11.9%
Change in Main Peak % Area After 18 H Incubation, 40° C. ([7]; sodium acetate buffer pH 6, 18 h, 40° C.): −95-100%
% Purity of the Compound, 18 Hours 40° C. ([7]; sodium acetate buffer pH 6, 18 hours, 40° C.): <5%
% Purity of the Compound, Initial ([7]; sodium acetate buffer pH 6, initial): 96.9%
In vitro plasma stability (Ratio of compound/benfluorex (std) degradation) ([3]; rat plasma, 37° C.): 0.41
half-life ([3]; rat plasma, 37° C., read-out: In vitro plasma stability (T ½)): 23 min
AUC(0-t) ([4]; sc, subcutaneous, blood, dosed compound itself, read-out: AUC(0-24) (hr*ng/mL, mean ± SD)): 2750 ng·h/mL
Compound: CCCCCCCCCCCCCCCCNC(=O)CN(CC(N)=O)C(=O)CCCCCNC(=O)C(Cc1c[nH]c2ccccc12)NC(=O)C(CCCNC(=N)N)NC(=O)C(CS)NC(=O)C(CCCNC(=N)N)NC(=O)CC1CCCN1C(=O)C(NC(=O)C(Cc1c[nH]cn1)NC(=O)C(NC(=O)CNCC(=O)O)C(C)O)C(c1ccccc1)c1ccccc1 (stereo not shown) [Compound 1, reference compound]
blood levels of the dosed compound (in words) ([4]; subcutaneous): remains little changed out to at least 24 hours
reduction in serum iron (in words) (serum iron): significant drop in serum iron level
